Data as given in patent US6805880B1, “Pharmaceutical delivery system for vitamin C and vitamin E and use of a combination of vitamin C and E for preventing or treating conditions involving oxidative stress” (Ferrosan A/S, priority 1999, dated 2004).
Read-outs that look alike come from different tables or passages of the source.

How the values were obtained:
[1] = Protocol: (§1) The study consisted of 8-week dietary counseling and placebo lead-in phase and a 3-year double-masked phase, for which the subjects were randomly allocated to either (i) […] of d-α-tocopheryl acetate twice daily (272 IU of vitamin E a day), ii) 250 mg slow-release ascorbic acid twice daily, (iii) both d-α-tocopheryl acetate and ascorbic acid in a single tablet, or (iv) placebo only. After the double-blind 3-year period, the study is continuing for another three years as an open study. The doses were chosen on the basis of pilot and kinetic studies (13, 15). The subjects were randomised separately in four strata of approximately equal size: (1) smoking (^35 cigarettes/day) men, (2) nonsmoking men, (3) smoking postmenopausal women, and (4) nonsmoking postmenopausal women. All subjects gave a written informed consent.
[2] = in vivo
Protocol: The inventors conducted a controlled trial with a formulation including both slow release vitamin C and conventional release vitamin E (250 mg AA and 91 mg α-tocopherol). 520 men and women, smokers and non-smokers, were randomised to vitamin C slow release, vitamin E, a formulation with vitamin E and slow release vitamin C, or placebo (Table 4).
In a double-masked 2×2 factorial trial, 520 smoking and non-smoking men and postmenopausal women aged 45-69 years with serum cholesterol ^35.0 […] were randomised in these four strata to receive either 182 mg of d-α-tocopheryl acetate, 500 mg of slow-release vitamin C daily, both or placebo for three years. Atherosclerotic progression was defined as linear regression slope of the mean ultrasonographically assessed common carotid intima-media thickness (IMT) over time.
as §1
Ascorbic acid was stabilised in heparin plasma with metaphosphoric acid immediately after plasma separation, and frozen at −80° C. Combined ascorbic acid and dehydroascorbic acid were determined with an HPLC method (39). Heparin plasma for α-tocopherol was extracted with ethanol and hexane and measured by a reversed phase HPLC method (15). Cholesterol and triglycerides were determined with enzymatic […] methods (30). Serum LDL cholesterol was measured based on precipitation using polyvinyl sulfate and HDL cholesterol after precipitation with magnesium chloride (30). Plasma fibrinogen concentration was determined with a clotting method (30), plasma homocysteine with an HPLC method (44), and serum ferritin by an immunoradiometric assay (Bio Rad, Quantimune, Hercules, Calif.). Dietary intake of foods and nutrients was assessed at baseline by 4-day instructed food recording. Physical activity was assessed by 12-month checked questionaire (43). Blood pressure was measured manually in sitting position after a rest of 10 minutes, three measurements at 3 minutes' intervals.

[3] = test system: common carotid artery intima-media thickness; test: ASAP study: progression of common carotid atherosclerosis (slope of ultrasonographic mean CCA-IMT); format: in vivo, human; details: for mean adjusted 3-year change of the mean carotid artery intima-media thickness (supplement: Yes): multivariate general linear model; for OR of atherosclerotic progression: double placebo as reference; for average unadjusted increase (slope) of the mean CCA-IMT: 3 years; for treatment effect on the proportion with progression: compared with placebo
Protocol: All subjects gave a written informed consent.
The subjects came to baseline visits and were randomised. Follow-up visits were 6, 12, 18, 24, 30 and 36 months later. Supplements were given, returned tablets were counted and ultrasonographic assessment of common carotid artery (CCA) intima-media thickness (IMT) was carried out at all these seven visits.
Equipment: Two identical Biosound Phase 2 systems were used (Biosound, Indianapolis, Ind., USA) equipped with a 8-10 MHz annular array transducer, with a measurement precision of 0.03 mm (41). The scannings were videotaped with PAL S-VHS Panasonic AG 7330E VCR.
Scanning (imaging) procedure and videorecording: The ultrasonographic scanning of the common carotid arteries (CCA), the carotid bulbs and the proximal internal carotid artery (ICA) was performed after a supine rest of 10 minutes, the subject in the supine position. […] The scanning was started with a diagnostic examination of entire accessible carotid tree, to find the most severe lesions. Secondly, the site of the greatest IMT at baseline in the CCA far wall was located and scanned thoroughly. This area was scanned from three angles: anterolateral, lateral and posterolateral.
Measurement from videotapes: All IMT measurements (both baseline and follow-up) from videotapes were made at the same site and angle at all examinations of each subject, which was the site with the greatest IMT (in any angle) which was clearly visible at baseline in the far wall of in CCA below the bulb. At this location IMT was measured in diastole for a length of 10 mm (or shorter, if not visible) in one angle for the far wall. Most often this was the distal centimeter of CCA. All IMT measurements were carried out after the 36-month examination.
Ultrasound image analysis: Computer analysis of ultrasound images to measure IMT was performed with a reading station equipped with Data Translation DT 2861 video frame grabber interfaced to a Panasonic AG 7355 VCR. The Prosound software, utilising automated boundary detection, was used. IMT was determined as the average difference at on the average 100 points between intima/lumen and media/adventitia interface (42).
Construction of the main outcome variable: Atherosclerotic progression was defined a priori as the linear regression slope of the mean common carotid IMT over six or seven points of follow-up time (0, 6, 12, 18, 24, 30 and 36 months). For 34 subjects, one follow-up was missing. First, the mean CCA-IMT from the right and the left side was averaged, and then the slope was computed across time-specific means.
All study participants for whom the main outcome variable was available, were included in the statistical analysis. Analyses were according to the intention-to-treat principle. As the subjects were randomised separately in four strata (smoking men, non-smoking men, smoking women, non-smoking women), this stratification was maintained also in the statistical analysis. As the a priori power calculations were based on stratified analysis in men and women, the primary statistical analysis was done in these two strata (Table 6).
To test the consistency of results, the outcome variable, the slope of the mean CCA-IMT over all available follow-up assessments, was used both as a continuous variable in general linear models and as a dichotomous variable in logistic models. The cut-off for the dichotomisation was the median among all 225 men. […] Odds ratios were estimated as antilogarithms of coefficients and their confidence intervals (Cl) based on normality assumption of SPSS 8.0 for Windows.
Three dummy variables were constructed to indicate whether the participant was randomised to receive only vitamin E, only vitamin C or both vitamins, and these were entered jointly in logistic models. The comparisons in the linear models were between each treatment group and all other groups. […]

[4] = female, human, in vivo, 3 years
[5] = men (n = 225), multivariate logistic model
[6] = women (n = 233), multivariate logistic model

| Compound | safety of the supplements ([1]; 3 years) | drop-outs: Death ([1]; men, number of subjects) | drop-outs: Death ([1]; women, number of subjects) | mean adjusted 3-year change of the mean carotid artery intima-media thickness (supplement: Yes) ([3]; men (n = 225)) [mm/year] | OR of atherosclerotic progression [3, 5] | average unadjusted increase (slope) of the mean CCA-IMT ([3]; men, placebo 0.020) [mm/year] | treatment effect on the proportion with progression ([3]; men) | OR of atherosclerotic progression ([3]; non-smoking men (n = 125)) | OR of atherosclerotic progression ([3]; non-smoking women (n = 123)) | OR of atherosclerotic progression ([3]; smoking men (n = 100)) | OR of atherosclerotic progression ([3]; smoking women (n = 110)) | mean adjusted 3-year change of the mean carotid artery intima-media thickness (supplement: Yes) ([3]; women (n = 233)) [mm/year] | OR of atherosclerotic progression [3, 6] | average unadjusted increase (slope) of the mean CCA-IMT ([3]; women, placebo 0.016) [mm/year] | also measured |
| --- | --- | --- | --- | --- | --- | --- | --- | --- | --- | --- | --- | --- | --- | --- | --- |
| O=C1O[C@H]([C@@H](O)CO)C(O)=C1O [Vitamin C, ascorbic acid] | safe | 1 | 0 | 0.0119 | 0.44 | 0.017 | non-significant | 0.30 | 0.99 | 0.45 | 0.69 | 0.0174 | 1.08 | 0.017 | drop-outs: Adverse event [1, 4]: 2; drop-outs: Severe adverse event [1, 4]: 1; drop-outs: Adverse event ([1]; male, human, in vivo, 3 years): 2; drop-outs: Severe adverse event ([1]; male, human, in vivo, 3 years): 1; drop-outs: Death ([1]; men, number of subjects, listed as vitamin C): One; change of plasma α-tocopherol (vitamin E in plasma) ([2]; female, human): 4.0%; change of plasma α-tocopherol (vitamin E in plasma) ([2]; male, human): 5.1%; mean plasma α-tocopherol concentration, after supplementation ([2]; male, human): 33.9 µmol/L; mean plasma α-tocopherol concentration, initial value ([2]; male, human): 32.3 µmol/L; effect on atherosclerotic progression ([3]; smoking men): nonsignificant trend towards protection |
| CC(=O)Oc1c(C)c(C)c2c(c1C)CC[C@@](C)(CCC[C@H](C)CCC[C@H](C)CCCC(C)C)O2 [Vitamin E, d-α-tocopheryl acetate] | safe | 3 | 0 | 0.0118 | 0.56 | 0.018 | non-significant | 1.07 | 1.13 | 0.21 | 0.76 | 0.0165 | 1.05 | 0.015 | drop-outs: Adverse event ([1]; men, number of subjects): 1; drop-outs: Severe adverse event ([1]; men, number of subjects): 1; drop-outs: Death ([1]; men, number of subjects, listed as vitamin): three; drop-outs: Adverse event ([1]; women, number of subjects): 3; drop-outs: Severe adverse event ([1]; women, number of subjects): 2; mean plasma α-tocopherol concentration, after supplementation [2]: 60.1 µmol/L; mean plasma α-tocopherol concentration, initial value [2]: 31.7 µmol/L |
